Read-outs that look alike come from different tables or passages of the source.
Columns and labels:
hCA IX = biological target: T1, hCA IX (Homo sapiens, UniProt Q16790); assay: stopped-flow CO2 hydrase assay; type: biochemical
T1 construct: gene CA9; recombinant, obtained in-house as reported earlier
Source text: stopped-flow CO2 hydrase assay on hCA IX

hCA IV = biological target: T2, hCA IV (Homo sapiens, UniProt P22748); assay: stopped-flow CO2 hydrase assay; type: biochemical
T2 construct: gene CA4; recombinant, obtained in-house as reported earlier
Source text: stopped-flow CO2 hydrase assay on hCA IV

hCA II = biological target: T3, hCA II (Homo sapiens, UniProt P00918); assay: stopped-flow CO2 hydrase assay; type: biochemical
T3 construct: gene CA2; recombinant, obtained in-house as reported earlier; cytosolic
Source text: stopped-flow CO2 hydrase assay on hCA II

CCRF-CEM = assay: cells; design: species or system NCI human tumour cell line panel; NCI one-dose anti-proliferative screen, human tumour cell line panel, growth inhibition percent (GI%); conditions: Homo sapiens, CCRF-CEM; growth inhibition (GI%), single dose
Description: (§1) Ten of the newly synthesised 1,2,3-triazolo benzenesulfonamide derivatives were selected by NCI (Bethesda, MD) for evaluating their anti-proliferative activity. The selected compounds were subjected to a primary in vitro one-dose ([…]) anti-proliferative assay against 57 human tumour cell lines following the previously reported method[30] and their obtained growth inhibition percent (GI%) are presented in Table 2. A subset of ten triazolo-benzenesulfonamides (3, 5, 6, 7, 9, 11, 16–18, and 20) were selected and subjected to an in vitro anti-proliferative screening against a panel of 57 cancer cell lines at NCI at an initial high dose ([…]). The human cell lines used were derived from nine cancer types: leukaemia, lung, colon, CNS, melanoma, ovarian, renal, prostate and breast cancers.

HL-60(TB) = assay: cells; design: species or system NCI human tumour cell line panel; NCI one-dose anti-proliferative screen, human tumour cell line panel, growth inhibition percent (GI%); conditions: Homo sapiens, HL-60; growth inhibition (GI%), single dose
Description: as §1

HOP-92 = assay: cells; design: species or system NCI human tumour cell line panel; NCI one-dose anti-proliferative screen, human tumour cell line panel, growth inhibition percent (GI%); conditions: Homo sapiens, HOP-92; growth inhibition (GI%), single dose
Description: as §1

IGROV1 = assay: cells; design: species or system NCI human tumour cell line panel; NCI one-dose anti-proliferative screen, human tumour cell line panel, growth inhibition percent (GI%); conditions: Homo sapiens, IGROV-1; growth inhibition (GI%), single dose
Description: as §1

NCI-H23 = assay: cells; design: species or system NCI human tumour cell line panel; NCI one-dose anti-proliferative screen, human tumour cell line panel, growth inhibition percent (GI%); conditions: Homo sapiens, NCI-H23; growth inhibition (GI%), single dose
Description: as §1

OVCAR-8 = assay: cells; design: species or system NCI human tumour cell line panel; NCI one-dose anti-proliferative screen, human tumour cell line panel, growth inhibition percent (GI%); conditions: Homo sapiens, OVCAR-8; growth inhibition (GI%), single dose
Description: as §1

PC-3 = assay: cells; design: species or system NCI human tumour cell line panel; NCI one-dose anti-proliferative screen, human tumour cell line panel, growth inhibition percent (GI%); conditions: Homo sapiens, PC-3; growth inhibition (GI%), single dose
Description: as §1

RPMI-8226 = assay: cells; design: species or system NCI human tumour cell line panel; NCI one-dose anti-proliferative screen, human tumour cell line panel, growth inhibition percent (GI%); conditions: Homo sapiens, RPMI-8226; growth inhibition (GI%), single dose
Description: as §1

SR = assay: cells; design: species or system NCI human tumour cell line panel; NCI one-dose anti-proliferative screen, human tumour cell line panel, growth inhibition percent (GI%); conditions: Homo sapiens, SR; growth inhibition (GI%), single dose
Description: as §1

UACC-62 = assay: cells; design: species or system NCI human tumour cell line panel; NCI one-dose anti-proliferative screen, human tumour cell line panel, growth inhibition percent (GI%); conditions: Homo sapiens, UACC-62; growth inhibition (GI%), single dose
Description: as §1

HS 578T = assay: cells; design: species or system NCI human tumour cell line panel; NCI one-dose anti-proliferative screen, human tumour cell line panel, growth inhibition percent (GI%); conditions: Homo sapiens, Hs-578T; growth inhibition (GI%), single dose
Description: as §1

MDA-MB-231/ATCC = assay: cells; design: species or system NCI human tumour cell line panel; NCI one-dose anti-proliferative screen, human tumour cell line panel, growth inhibition percent (GI%); conditions: Homo sapiens, MDA-MB-231; growth inhibition (GI%), single dose
Description: as §1

SF-268 = assay: cells; design: species or system NCI human tumour cell line panel; NCI one-dose anti-proliferative screen, human tumour cell line panel, growth inhibition percent (GI%); conditions: Homo sapiens, SF-268; growth inhibition (GI%), single dose
Description: as §1

ACHN = assay: cells; design: species or system NCI human tumour cell line panel; NCI one-dose anti-proliferative screen, human tumour cell line panel, growth inhibition percent (GI%); conditions: Homo sapiens, ACHN; growth inhibition (GI%), single dose
Description: as §1

MDA-MB-435 = assay: cells; design: species or system NCI human tumour cell line panel; NCI one-dose anti-proliferative screen, human tumour cell line panel, growth inhibition percent (GI%); conditions: Homo sapiens, MDA-MB-435; growth inhibition (GI%), single dose
Description: as §1

BT-549 = assay: cells; design: species or system NCI human tumour cell line panel; NCI one-dose anti-proliferative screen, human tumour cell line panel, growth inhibition percent (GI%); conditions: Homo sapiens, BT-549; growth inhibition (GI%), single dose
Description: as §1

KM12 = assay: cells; design: species or system NCI human tumour cell line panel; NCI one-dose anti-proliferative screen, human tumour cell line panel, growth inhibition percent (GI%); conditions: Homo sapiens, KM12; growth inhibition (GI%), single dose
Description: as §1

T2 sequence (P22748 19-284): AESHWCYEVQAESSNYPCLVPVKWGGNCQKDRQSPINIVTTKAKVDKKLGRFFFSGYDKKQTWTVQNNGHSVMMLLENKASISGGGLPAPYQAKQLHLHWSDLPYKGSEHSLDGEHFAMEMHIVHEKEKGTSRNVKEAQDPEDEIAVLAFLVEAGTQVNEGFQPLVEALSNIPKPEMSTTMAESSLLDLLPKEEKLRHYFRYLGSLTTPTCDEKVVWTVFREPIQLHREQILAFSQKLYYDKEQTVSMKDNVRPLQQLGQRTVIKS

N#Cc1nnn(-c2ccc(S(N)(=O)=O)cc2)c1NS(=O)(=O)c1ccccc1 [compound 11, N-(4-cyano-1-(4-sulfamoylphenyl)-1H-1,2,3-triazol-5-yl)benzenesulfonamide]
Ki (hCA IX): 144 nM | Ki (hCA IV): 4520 nM | Ki (hCA II): 356 nM | inhibition at 10 µM (CCRF-CEM): 6.7% | inhibition at 10 µM (HL-60(TB)): 10.7% | inhibition at 10 µM (HOP-92): 4.2% | inhibition at 10 µM (IGROV1): 3.3% | inhibition at 10 µM (NCI-H23): 4.1% | inhibition at 10 µM (OVCAR-8): 2.9% | inhibition at 10 µM (PC-3): 9.7% | inhibition at 10 µM (RPMI-8226): 7.1% | inhibition at 10 µM (SR): 9.2% | inhibition at 10 µM (UACC-62): 5.9%

CCn1c(=S)[nH]c2c(nnn2-c2ccc(S(N)(=O)=O)cc2)c1=N [compound 20, 4-(6-ethyl-7-imino-5-thioxo-4,5,6,7-tetrahydro-3H-[1,2,3]triazolo[4,5-d]pyrimidin-3-yl)benzenesulfonamide]
Ki (hCA IX): 242 nM | Ki (hCA IV): 875 nM | Ki (hCA II): 930 nM | inhibition at 10 µM (CCRF-CEM): 20.9% | inhibition at 10 µM (HL-60(TB)): 8.9% | inhibition at 10 µM (HOP-92): 18% | inhibition at 10 µM (HS 578T): 2.5% | inhibition at 10 µM (NCI-H23): 9.4% | inhibition at 10 µM (OVCAR-8): 4.8% | inhibition at 10 µM (PC-3): 9.7% | inhibition at 10 µM (RPMI-8226): 12.1% | inhibition at 10 µM (SR): 7.5% | inhibition at 10 µM (UACC-62): 4.3%

Nc1nc(=S)[nH]c2c1nnn2-c1ccc(S(N)(=O)=O)cc1 [compound 18, 4-(7-amino-5-thioxo-4,5-dihydro-3H-[1,2,3]triazolo[4,5-d]pyrimidin-3-yl)benzenesulfonamide]
Ki (hCA IX): 272 nM | Ki (hCA IV): 489 nM | Ki (hCA II): 732 nM | inhibition at 10 µM (CCRF-CEM): 17.8% | inhibition at 10 µM (HL-60(TB)): 26.1% | inhibition at 10 µM (HOP-92): 10.6% | inhibition at 10 µM (HS 578T): 9.8% | inhibition at 10 µM (MDA-MB-231/ATCC): 14.8% | inhibition at 10 µM (NCI-H23): 4.7% | inhibition at 10 µM (OVCAR-8): 3.7% | inhibition at 10 µM (PC-3): 7.8% | inhibition at 10 µM (RPMI-8226): 12.3% | inhibition at 10 µM (SF-268): 1.5% | inhibition at 10 µM (SR): 1.7% | inhibition at 10 µM (UACC-62): 5.6%

N#Cc1nnn(-c2ccc(S(N)(=O)=O)cc2)c1N [compound 3, 3]
inhibition at 10 µM (ACHN): 1.3% | inhibition at 10 µM (CCRF-CEM): 15.3% | inhibition at 10 µM (HL-60(TB)): 6.5% | inhibition at 10 µM (HOP-92): 8.2% | inhibition at 10 µM (HS 578T): 5.9% | inhibition at 10 µM (MDA-MB-435): 3.1% | inhibition at 10 µM (OVCAR-8): 4.6% | inhibition at 10 µM (PC-3): 8.3% | inhibition at 10 µM (RPMI-8226): 8.5% | inhibition at 10 µM (SF-268): 2.8% | inhibition at 10 µM (SR): 3.5% | inhibition at 10 µM (UACC-62): 5.5%

N#Cc1nnn(-c2ccc(S(N)(=O)=O)cc2)c1/N=C/c1ccc(Cl)cc1 [compound 9, 9]
inhibition at 10 µM (BT-549): 11.3% | inhibition at 10 µM (CCRF-CEM): 15.9% | inhibition at 10 µM (HL-60(TB)): 12.6% | inhibition at 10 µM (HOP-92): 12.8% | inhibition at 10 µM (KM12): 0.5% | inhibition at 10 µM (MDA-MB-435): 3.4% | inhibition at 10 µM (OVCAR-8): 7.4% | inhibition at 10 µM (PC-3): 9.3% | inhibition at 10 µM (RPMI-8226): 12.3% | inhibition at 10 µM (SR): 15.8% | inhibition at 10 µM (UACC-62): 6%

N#Cc1nnn(-c2ccc(S(N)(=O)=O)cc2)c1NCC(=O)c1ccccc1 [compound 7, 7]
inhibition at 10 µM (ACHN): 0.6% | inhibition at 10 µM (BT-549): 2% | inhibition at 10 µM (CCRF-CEM): 16.4% | inhibition at 10 µM (HL-60(TB)): 11.6% | inhibition at 10 µM (HOP-92): 13.5% | inhibition at 10 µM (HS 578T): 1.7% | inhibition at 10 µM (IGROV1): 0.5% | inhibition at 10 µM (KM12): 0.6% | inhibition at 10 µM (MDA-MB-231/ATCC): 4.9% | inhibition at 10 µM (MDA-MB-435): 8.3% | inhibition at 10 µM (NCI-H23): 2.1% | inhibition at 10 µM (OVCAR-8): 2.4% | inhibition at 10 µM (PC-3): 15.9% | inhibition at 10 µM (RPMI-8226): 12.5% | inhibition at 10 µM (SF-268): 6.5% | inhibition at 10 µM (SR): 9.3% | inhibition at 10 µM (UACC-62): 4%

CN(C)c1ccc(-c2nc3c(nnn3-c3ccc(S(N)(=O)=O)cc3)c(N)c2C#N)cc1 [compound 17, 4-(7-amino-6-cyano-5-(4-(dimethylamino)phenyl)-3H-[1,2,3]triazolo[4,5-b]pyridin-3-yl)benzenesulfonamide]
Ki (hCA IX; CO2 […], […] Hepes pH […] Na2SO4, […] phenol red, […] min pre-incubation at room temperature): 35.1 nM | Ki (hCA IV): 473 nM | Ki (hCA II): 56.8 nM | inhibition at 10 µM (ACHN): 9.3% | inhibition at 10 µM (BT-549): 0.3% | inhibition at 10 µM (CCRF-CEM): 11.4% | inhibition at 10 µM (HL-60(TB)): 12.5% | inhibition at 10 µM (HOP-92): 18.5% | inhibition at 10 µM (HS 578T): 2.9% | inhibition at 10 µM (IGROV1): 12.1% | inhibition at 10 µM (KM12): 5.9% | inhibition at 10 µM (MDA-MB-231/ATCC): 18% | inhibition at 10 µM (NCI-H23): 9.8% | inhibition at 10 µM (OVCAR-8): 11.4% | inhibition at 10 µM (PC-3): 13.8% | inhibition at 10 µM (RPMI-8226): 12.5% | inhibition at 10 µM (SF-268): 3.9% | inhibition at 10 µM (SR): 3.2% | inhibition at 10 µM (UACC-62): 11.6%

N#Cc1c(-c2ccc(Cl)cc2)nc2c(nnn2-c2ccc(S(N)(=O)=O)cc2)c1N [compound 16, 4-(7-amino-5-(4-chlorophenyl)-6-cyano-3H-[1,2,3]triazolo[4,5-b]pyridin-3-yl)benzenesulfonamide]
Ki (hCA IX): 42.6 nM | Ki (hCA IV): 788 nM | Ki (hCA II): 169 nM | inhibition at 10 µM (CCRF-CEM): 16.4% | inhibition at 10 µM (HL-60(TB)): 5.5% | inhibition at 10 µM (HOP-92): 35.4% | inhibition at 10 µM (HS 578T): 12.1% | inhibition at 10 µM (IGROV1): 16.4% | inhibition at 10 µM (MDA-MB-231/ATCC): 24.2% | inhibition at 10 µM (MDA-MB-435): 2.9% | inhibition at 10 µM (NCI-H23): 11.2% | inhibition at 10 µM (OVCAR-8): 3.8% | inhibition at 10 µM (PC-3): 22.2% | inhibition at 10 µM (RPMI-8226): 8.4% | inhibition at 10 µM (SF-268): 5.4% | inhibition at 10 µM (SR): 16.8% | inhibition at 10 µM (UACC-62): 15.5%

From article PMC6171417, “Carbonic anhydrase inhibition with a series of novel benzenesulfonamide-triazole conjugates” (Journal of Enzyme Inhibition and Medicinal Chemistry, 2018)
